Results on ten molecules are retold here after patent US20250236616A1, “IMMUNOMODULATING AZALIDES” (Zoetis Services LLC, priority 2021, published 2025).

pIC50: −log10 of the molar value. Read-outs that look alike come from different tables or passages of the source. Marks after values point to notes of the source that are not given here. Some results are limits rather than exact numbers.

Common to all, as to format: cell-based
In test [1] the test system is BRD pathogens, M. haemolytica and P. multocida. In words: MIC screening panel, BRD pathogens (CLSI broth micro-dilution). The text has this:
Primary screening of the compounds of the invention included the evaluation of antibacterial activity of analogs through determination of microbial inhibition concentration (MIC) as per CLSI guidelines. The screening panel included the relevant BRD pathogens: 1) M. haemolytica (e.g., 12726, 46571 and 49023, all AHDRCC; and 33396 (ATCC)); and 2) P. multocida (e.g., 34135 and 46572 (both AHDRCC) and 43137 (ATCC)). In some instances, H. somni (A700025K) pathogens were also included in the screening panel. The AHDRCC strains originated from the Zoetis BRD/SRD surveillance program and refer to the Animal Health Development and Research Culture Collection. In addition, the screen assessed S. aureus (29213 ATCC) as a representative Gram-positive isolate, E.faecalis (19433 ATCC) as a commensal gram-positive gastrointestinal bacterium and E. coli (100, 3110 and 25922 (ATCC)) for the evaluation of efflux potential. The screening panel BRD pathogens were assessed in determining antibacterial activity of the Formula (1) compounds.
All relevant BRD pathogens were initially screened at a top concentration of 64 μg/mL of a Formula (1) compound in an eleven-point dilution series. […] If an Example was purified further, the MICs moved […] essentially two dilutions across all strains tested in the screening panel.
In-Vitro MIC Model Compounds were analyzed for antibacterial activity against a panel of animal health specific gram-positive and gram-negative clinical strains by diluting compounds in DMSO to an appropriate stock concentration to determine the Minimal Inhibitory Concentration (MIC) via a semi-automated broth micro-dilution method (CLSI reference method) with QC strains and anti-microbial agent(s). Specifically, bacteria were grown overnight on TSA w/5% sheep blood agar plates and diluted in saline buffer to a McFarland Standard 0.5, then further diluted in cation-ion adjusted Mueller Hinton Broth to a final concentration of approximately 5×10^5 CFU/mL. 100 μL of inoculated media was added to 96-well plate(s) with 3 μL of serially diluted compound in each row. Depending on strain (see CLSI reference method), bacteria were incubated 18-22 hours at 35-37° C. in ambient air, with 5% CO2 or anaerobically (up to 48 hours).
(In broth dilution the organism is exposed to a series of concentrations in liquid medium.)

Another test relates to TNF-α. The experiment in a line: Whole bovine blood assay, LPS-induced TNF-α. Particulars: fresh whole bovine blood, LPS stimulant, top drug concentration 250 μM. Put shortly: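 Fresh heparinized bovine whole blood was preincubated with compound 4 h at 37 °C, then stimulated with LPS (final 1 μg/mL) for 18 h at 37 °C. Plasma TNF-α was quantified by MSD U-Plex chemiluminescent immunoassay, normalized to total protein (BCA), and IC50 taken for LPS-induced TNF-α inhibition.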

The subject of another test is IL-6. In words: Whole bovine blood assay, LPS-induced IL-6. To be noted: fresh whole bovine blood, LPS stimulant, top drug concentration 250 μM.
The test system of the next test is IL-1β. The experiment in a line: Whole bovine blood assay, LPS-induced IL-1β (inhibition / overstimulation). Particulars: drug concentration giving overstimulation (OS) of LPS-induced IL-1β, top concentration 250 μM. Summed up: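 Fresh heparinized bovine whole blood was preincubated with compound at varying concentrations for 4 h at 37 °C, then stimulated with 1 μg/mL LPS for 18 h. Plasma IL-1β was measured by MSD chemiluminescent immunoassay and normalized to total protein. Values cover inhibition and concentration-dependent overstimulation.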

[2] abbreviates: BRD pathogens M. haemolytica and P. multocida, read-out: antibacterial / non-antibacterial (MIC class).
[3] abbreviates: Table B, at least one BRD pathogenic strain, top concentration 64 μg/mL, read-out: MIC flag (*) for BRD pathogenic strains.
The mark [4] stands for this setting: Table B, at least one BRD pathogenic strain, top concentration 64 μg/mL.

By pIC50 is commonly meant the IC50 on a negative log10 scale, so that one unit is a factor of ten. A higher pIC50 goes with a low IC50. As for `CC[C@H]1OC(=O)[C@H](C)[C@@H](O[C@H]2C[C@@](C)(OC)[C@](O)(CSc3ccccc3)[C@H](C)O2)[C@H](C)[C@@H](O[C@@H]2O[C@H](C)C[C@H](N(C)S(=O)(=O)c3ccc(Cl)cc3)[C@H]2O)[C@](C)(O)C[C@@H](C)CN[C@H](C)[C@@H](O)[C@]1(C)O` [Example A3-1, 4-chloro-N-((2S,3R,4S,6R)-2-(((2R,3S,4R,5R,8R,10R,11R,12S,13S,14R)-2-ethyl-3,4, 10-trihydroxy-13-(((2R,4R,5S,6S)-5-hydroxy-4-methoxy-4,6-dimethyl-5-((phenylthio)methyl)tetrahydro-2H-pyran-2-yl)oxy)-3,5,8, 10, 12, 14-hexamethyl-15-oxo-1-oxa-6-azacyclopentadecan-11-yl)oxy)-3-hydroxy-6-methyltetrahydro-2H-pyran-4-yl)-N-methylbenzenesulfonamide], the MIC in test [1] (setting [2]) was over 64 µg/mL. The pIC50 with TNF-α (Bos taurus) is 4.57; in the test on IL-6 (Bos taurus) it was 4.51.

On to `CC[C@H]1OC(=O)[C@H](C)[C@@H](O[C@H]2C[C@@](C)(OC)[C@](O)(CC#N)[C@H](C)O2)[C@H](C)[C@@H](O[C@@H]2O[C@H](C)C[C@H](N(C)S(=O)(=O)c3ccc(Cl)cc3)[C@H]2O)[C@](C)(O)C[C@@H](C)CN[C@H](C)[C@@H](O)[C@]1(C)O` [Example A6-1, 4-chloro-N-((2S,3R,4S,6R)-2-(((2R,3S,4R,5R,8R,10R,11R,12S,13S,14R)-13-(((2R,4R,5S,6S)-5-(cyanomethyl)-5-hydroxy-4-methoxy-4,6-dimethyltetrahydro-2H-pyran-2-yl)oxy)-2-ethyl-3,4,10-trihydroxy-3,5,8,10,12,14-hexamethyl-15-oxo-1-oxa-6-azacyclopentadecan-11-yl)oxy)-3-hydroxy-6-methyltetrahydro-2H-pyran-4-yl)-N-methylbenzenesulfonamide], for which the MIC in test [1] (setting [2]) is over 64 µg/mL.

`CCCNC[C@]1(O)[C@H](C)O[C@@H](O[C@H]2[C@H](C)[C@@H](O[C@@H]3O[C@H](C)C[C@H](N(C)S(=O)(=O)NCCc4ccccc4)[C@H]3O)[C@](C)(O)C[C@@H](C)CN[C@H](C)[C@@H](O)[C@](C)(O)[C@@H](CC)OC(=O)[C@@H]2C)C[C@@]1(C)OC` [Example B-40, (2R,3S,4R,5R,8R,10R,11R,12S,13S,14R)-2-ethyl-3,4,10-trihydroxy-13-[(2R,4R,5S,6S)-5-hydroxy-4-methoxy-4,6-dimethyl-5-(propylaminomethyl)oxan-2-yl]oxy-11-[(2S,3R,4S,6R)-3-hydroxy-6-methyl-4-[methyl (2-phenylethylsulfamoyl)amino]oxan-2-yl]oxy-3,5,8,10,12,14-hexamethyl-15-oxo-1-oxa-6-azacyclopentadecane]: the MIC in test [1] (setting [3]) is at most 64 µg/mL.

With `CCCNC[C@]1(O)[C@H](C)OC(O[C@H]2[C@H](C)[C@@H](O[C@@H]3O[C@H](C)C[C@H](N(C)S(=O)(=O)c4c(C)noc4C)[C@H]3Oc3ccc(OC)cc3)[C@](C)(O)C[C@@H](C)CN[C@H](C)[C@@H](O)[C@](C)(O)[C@@H](CC)OC(=O)[C@@H]2C)C[C@@]1(C)OC` (stereo partly shown) [Example B-116], the “MIC flag (*) for BRD pathogenic strains” value in test [1] (setting [4]) was “B-116* (MIC ≤64 μg/mL for at least one BRD pathogenic strain)”.

On to `CCCNC[C@]1(O)[C@H](C)OC(O[C@H]2[C@H](C)[C@@H](O[C@@H]3O[C@H](C)C[C@H](N(C)S(=O)(=O)c4ccc(-c5cnco5)s4)[C@H]3Oc3ccc(OC)cc3)[C@](C)(O)C[C@@H](C)CN[C@H](C)[C@@H](O)[C@](C)(O)[C@@H](CC)OC(=O)[C@@H]2C)C[C@@]1(C)OC` (stereo partly drawn) [Example B-120, N-[(2S,3R,4S,6R)-2-[[(2R,3S,4R,5R,8R,10R,11R,12S,13S, 14R)-2-ethyl-3,4,10-trihydroxy-13-[(4R,5S,6S)-5-hydroxy-4-methoxy-4,6-dimethyl-5-(propylaminomethyl)oxan-2-yl]oxy-3,5,8, 10, 12, 14-hexamethyl-15-oxo-1-oxa-6-azacyclopentadec-11-yl]oxy]-3-(4-methoxyphenoxy)-6-methyloxan-4-yl]-N-methyl-5-(1,3-oxazol-5-yl)thiophene-2-sulfonamide], for which the MIC in test [1] (setting [3]) is at most 64 µg/mL. This molecule gave a negative logarithm of the IC50 (pIC50) with IL-6 (Bos taurus) of 5.22.

With `CCCNC[C@]1(O)[C@H](C)O[C@@H](O[C@H]2[C@H](C)[C@@H](O[C@@H]3O[C@H](C)C[C@H](N(C)S(=O)(=O)c4ccccc4)[C@H]3Oc3ccc(F)cc3)[C@](C)(O)C[C@@H](C)CN(CC)[C@H](C)[C@@H](O)[C@](C)(O)[C@@H](CC)OC(=O)[C@@H]2C)C[C@@]1(C)OC` [Example B-161, N-((2S,3R,4S,6R)-2-(((2R,3S,4R,5R,8R,10R,11R,12S,13S,14R)-2,6-diethyl-3,4,10-trihydroxy-13-(((2R,4R,5S,6S)-5-hydroxy-4-methoxy-4,6-dimethyl-5-((propylamino)methyl)tetrahydro-2H-pyran-2-yl)oxy)-3,5,8,10,12,14-hexamethyl-15-oxo-1-oxa-6-azacyclopentadecan-11-yl)oxy)-3-(4-fluorophenoxy)-6-methyltetrahydro-2H-pyran-4-yl)-N-methylbenzenesulfonamide], the MIC in test [1] (setting [3]) was at most 64 µg/mL.

One may read the minimal effective concentration as the smallest amount tested that counted as effective. Low values mean an effect from little substance, high ones a need for much substance. Take `CC[C@H]1OC(=O)[C@H](C)[C@@H](O[C@H]2C[C@@](C)(OC)[C@](O)(CN3CCCCC3)[C@H](C)O2)[C@H](C)[C@@H](O[C@@H]2O[C@H](C)C[C@H](N(C)S(=O)(=O)c3ccccc3)[C@H]2Oc2ccnc(F)c2)[C@](C)(O)C[C@@H](C)CN[C@H](C)[C@@H](O)[C@]1(C)O` [Example C-55]: the pIC50 with TNF-α is 5.22; in the test with IL-6, 5.05. In the test with IL-1β, this molecule returned a minimal effective concentration of 6 µM.

Take `CCCNC[C@]1(O)[C@H](C)O[C@@H](O[C@H]2[C@H](C)[C@@H](O[C@@H]3O[C@H](C)C[C@H]4[C@H]3OS(=O)(=O)N4C)[C@](C)(O)C[C@@H](C)CN[C@H](C)[C@@H](O)[C@](C)(O)[C@@H](CC)OC(=O)[C@@H]2C)C[C@@]1(C)OC` [Example D-1]: the values for the pIC50 in the test on TNF-α and in the test with IL-6 were 5.30 and 4.57, respectively. The minimal effective concentration with IL-1β came out at 16 µM.

Take “(2R,3S,4R,5R,8R,10R,11R,12S,13S,14R)-2-ethyl-3,4,10-trihydroxy-13-[(2R,4R,5S,6S)-5-hydroxy-4-methoxy-4,6-dimethyl-5-(propylaminomethyl) oxan-2-yl]oxy-11-[(2S,3R,4S,6R)-3-hydroxy-6-methyl-4-[methyl-[[4-(trifluoromethyl)phenyl]sulfamoyl]-amino]oxan-2-yl]oxy-3,5,6,8,10,12,14-heptamethyl-15-oxo-1-oxa-6-azacyclopentadecane [Example B-159]”: in test [1] (setting [4]), the “MIC flag (*) for BRD pathogenic strains” value is reported as “B-159* (MIC ≤64 μg/mL for at least one BRD pathogenic strain)”. Also, the pIC50 in the test on TNF-α is 5.40.

For the molecule “(2R,3S,4R,5R,8R,10R,11R, 12S, 13S, 14R)-11-[(2R,3S,4R,6S)-4-[[3-(dimethylamino)phenyl]sulfamoyl-methylamino]-3-hydroxy-6-methyloxan-2-yl]oxy-2-ethyl-3,4,10-trihydroxy-13-[(2R,4R,5S,6S)-5-hydroxy-4-methoxy-4,6-dimethyl-5-(piperidin-1-ylmethyl) oxan-2-yl]oxy-3,5,8,10, 12, 14-hexamethyl-15-oxo-1-oxa-6-azacyclopentadecane [Example C-25]”, in test [1] (Table C, at least one BRD pathogenic strain, top concentration 64 μg/mL), the “MIC flag (*) for BRD pathogenic strains” value was “C-25* (MIC ≤64 μg/mL for at least one BRD pathogenic strain)”. In the test with TNF-α, this molecule had a pIC50 of 4.43.
